{"source": "paper PMC11049802", "about": "(International Journal of Molecular Sciences, 2024)", "target": "E. coli nitroreductase A (NfsA) (Escherichia coli, UniProt P17117)", "sequence (P17117 whole entry)": "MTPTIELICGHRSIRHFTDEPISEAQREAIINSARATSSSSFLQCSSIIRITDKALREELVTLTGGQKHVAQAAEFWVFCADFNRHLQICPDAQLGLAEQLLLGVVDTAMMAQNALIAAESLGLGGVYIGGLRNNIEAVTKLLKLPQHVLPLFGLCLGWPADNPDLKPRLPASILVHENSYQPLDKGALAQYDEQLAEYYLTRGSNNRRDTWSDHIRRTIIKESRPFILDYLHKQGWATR", "test": "steady-state kinetics; competitive inhibition versus NADPH (also reduced as a substrate)", "assay_type": "biochemical"}
{"compound": "CC(=O)c1ccc[n+]([C@@H]2O[C@H](COP(=O)([O-])OP(=O)(O)OC[C@H]3O[C@@H](n4cnc5c(N)ncnc54)[C@H](OP(=O)(O)O)[C@@H]3O)[C@@H](O)[C@H]2O)c1", "note": "[APADP+]", "values": [{"measurement": "Ki", "value": "150 ± 12", "unit": "µM"}]}
